The numbers were not newly measured in PubChem BioAssay AID1259409 (Chemical Carcinogenesis Research Information System (CCRIS), 2018), which cites them from elsewhere.

The series deals with rodent chemically induced tumor inhibition, incidence and multiplicity. The series can be described thus: CCRIS tumor inhibitor studies. The following applies: Promoter: NONE USED; for outcome: Dose [Inhibitor]: 3 MG/KG BW IN 0.1 ML CORN OIL 3/WK FOR DURATION OF EXPERIMENT BEGINNING 15 D POST CARCINOGEN DOSE, Target Tissue: Type of Lesion: MAMMARY GLAND: ADENOCARCINOMA, FIBROADENOMA, Dose [Carcinogen]: 5 OR 10 MG IN 0.5 ML CORN OIL ONCE.

As for `CC(C)C[C@H]1C(=O)N2CCC[C@H]2[C@]2(O)O[C@](NC(=O)[C@@H]3C=C4c5cccc6[nH]c(Br)c(c56)C[C@H]4N(C)C3)(C(C)C)C(=O)N12`, the “tumour outcome (control, treated, inhibition, significance)” value is recorded as 13/22 (59%), 11/24 (46%), 22%, not significant (Carcinogen: DIMETHYLBENZ[A]ANTHRACENE, 57-97-6, Dose [Inhibitor]: 3 MG/KG BW (0.1 ML) IN CORN OIL 5/WK OR 6/WK FOR 2 WK (11 INJECTIONS) BEGINNING 15 D PRIOR TO CARCINOGEN DOSE AT 35 D OF, Route [Inhibitor]: SUBCUTANEOUS, Species: RAT, Strain/Sex: SPRAGUE-DAWLEY/FEMALE, Target Tissue: Type of Lesion: MAMMARY GLAND: TUMOR, Dose [Carcinogen]: 5 MG/RAT IN CORN OIL ONCE); 85%, 21%, 75%, p<0.001 at 20 wk (Carcinogen: DIMETHYLBENZ[A]ANTHRACENE, 57-97-6, Dose [Inhibitor]: 400 UG/100 G BW TOGETHER WITH 25 UG TAMOXIFEN/100 G BW 1/D FOR 20 WK BEGINNING 3 D POST CARCINOGEN DOSE (STUDY DURATION:, Route [Inhibitor]: SUBCUTANEOUS, Species: RAT, Strain/Sex: SPRAGUE-DAWLEY/FEMALE, Target Tissue: Type of Lesion: MAMMARY GLAND: CARCINOMA, Dose [Carcinogen]: 5 MG ONCE AT 53 D OF AGE); 90%, 10%, 89%, p<0.001 at 12 wks (Carcinogen: DIMETHYLBENZ[A]ANTHRACENE, 57-97-6, Dose [Inhibitor]: 400 UG/100 G BW TOGETHER WITH 25 UG TAMOXIFEN/100 G BW 1/D FOR 20 WK BEGINNING 3 D POST CARCINOGEN DOSE (STUDY DURATION:, Route [Inhibitor]: SUBCUTANEOUS, Species: RAT, Strain/Sex: SPRAGUE-DAWLEY/FEMALE, Target Tissue: Type of Lesion: MAMMARY GLAND: CARCINOMA, Dose [Carcinogen]: 10 MG ONCE AT 53 D OF AGE); 100%, 12%, 88%, p<0.001 at 11 wks (Carcinogen: DIMETHYLBENZ[A]ANTHRACENE, 57-97-6, Dose [Inhibitor]: 400 UG/100 G BW TOGETHER WITH 25 UG TAMOXIFEN/100 G BW 1/D FOR 26 WK BEGINNING 3 D POST CARCINOGEN DOSE (STUDY DURATION:, Route [Inhibitor]: SUBCUTANEOUS, Species: RAT, Strain/Sex: SPRAGUE-DAWLEY/FEMALE, Target Tissue: Type of Lesion: MAMMARY GLAND: CARCINOMA, Dose [Carcinogen]: 20 MG ONCE AT 53 D OF AGE); 100%, 3%, 97%, p<0.001 at 11 wk (Carcinogen: DIMETHYLBENZ[A]ANTHRACENE, 57-97-6, Dose [Inhibitor]: 400 UG/100 G BW TOGETHER WITH 25 UG TAMOXIFEN/100 G BW 1/D PLUS 68 MG RETINYL ACETATE/KG OF DIET, BEGINNING 3 D POST CAR, Route [Inhibitor]: SUBCUTANEOUS, Species: RAT, Strain/Sex: SPRAGUE-DAWLEY/FEMALE, Target Tissue: Type of Lesion: MAMMARY GLAND: CARCINOMA, Dose [Carcinogen]: 20 MG ONCE AT 53 D OF AGE); 90%, 5%, 94%, p<0.001 at 12 wk (Carcinogen: DIMETHYLBENZ[A]ANTHRACENE, 57-97-6, Dose [Inhibitor]: 400 UG/100 G BW TOGETHER WITH 25 UG TAMOXIFEN/100 G BW 1/D PLUS 204 MG RETINYL ACETATE/KG OF DIET, BEGINNING 3 D POST CA, Route [Inhibitor]: SUBCUTANEOUS, Species: RAT, Strain/Sex: SPRAGUE-DAWLEY/FEMALE, Target Tissue: Type of Lesion: MAMMARY GLAND: CARCINOMA, Dose [Carcinogen]: 10 MG ONCE AT 53 D OF AGE). Besides, the “tumour outcome (control, treated, inhibition, significance)” value is listed as 85%, 5%, 94%, p<0.001 at 20 wk (Carcinogen: DIMETHYLBENZ[A]ANTHRACENE, 57-97-6, Dose [Inhibitor]: 400 UG/100 G BW TOGETHER WITH 25 UG TAMOXIFEN/100 G BW 1/D PLUS 328 MG RETINYL ACETATE/KG DIET BEGINNING 3 D POST CARCIN, Route [Inhibitor]: SUBCUTANEOUS, Species: RAT, Strain/Sex: SPRAGUE-DAWLEY/FEMALE, Target Tissue: Type of Lesion: MAMMARY GLAND: CARCINOMA, Dose [Carcinogen]: 5 MG ONCE AT 53 D OF AGE); 30/100 (30%), 10/100 (10%), 67%, p<0.001 (Carcinogen: ENOVID (NORETHYNODREL WITH MESTRANOL), 8015-30-3, Dose [Inhibitor]: 0.1 MG 1/D FOR 21 MO BEGINNING CONCURRENTLY WITH CARCINOGEN DOSE (STUDY DURATION: 21 MO), Route [Inhibitor]: SUBCUTANEOUS, Species: MOUSE, Strain/Sex: C3H/FEMALE, Target Tissue: Type of Lesion: MAMMARY GLAND: CARCINOMA, Dose [Carcinogen]: 0.1 MG 2/WK FOR 21 MO); 58/119 (49%), 34/119 (29%), 41%, p<0.005 (Carcinogen: ESTRONE, 53-16-7, PROGESTERONE, 57-83-0, Carcinogen: ESTRONE, 53-16-7, PROGESTERONE, 57-83-0, Dose [Inhibitor]: 100 UG 1/D FOR 13 WK BEGINNING CONCURRENTLY WITH CARCINOGEN DOSE (STUDY DURATION: NOT STATED, DATA INDICATES 13 WK), Route [Inhibitor]: SUBCUTANEOUS, Species: MOUSE, Strain/Sex: STRAIN-GR/FEMALE, Target Tissue: Type of Lesion: MAMMARY GLAND: PAPILLARY CARCINOMA, Dose [Carcinogen]: 0.5 MG/L FOR 13 WK IN DRINKING WATER BEGINNING AT 15 WK OF AGE, THEN 30 MG PELLET IMPLANT 1/MO BEGINNING AT 15 WK OF AGE); 16/29 (55%), 4/20 (20%), 64%, p<o.o5 (Carcinogen: ISONIAZID, 54-85-3, Dose [Inhibitor]: 5000 PPM IN DIET STARTING 1 WK PRIOR TO ADMINISTRATION OF CARCINOGEN UNTIL END OF EXPERIMENT (STUDY DURATION: APPROXIMAT, Route [Inhibitor]: ORAL, Species: MOUSE, Strain/Sex: SWISS/MALE, FEMALE, Target Tissue: Type of Lesion: LIVER AND LUNG: COMBINED TUMORS, Dose [Carcinogen]: 1.1 MG/D 5 D/WK UNTIL 25 MO OF AGE); 12/19 (63%), 12/20 (60%), 5%, not calculated (Carcinogen: N-METHYL-N'-NITRO-N-NITROSOGUANIDINE, 70-25-7, Dose [Inhibitor]: 0, 0.25 MG/KG AS A SUSPENSION IN OLIVE OIL 1/2 D BEGINNING POST CARCINOGEN DOSE AND CONTINUING FOR DURATION OF STUDY (ST, Route [Inhibitor]: SUBCUTANEOUS, Species: RAT, Strain/Sex: WISTAR/MALE, Target Tissue: Type of Lesion: STOMACH: ADENOCARCINOMA, Dose [Carcinogen]: 50 UG/ML IN DRINKING WATER FOR 25 WK); 12/19 (63%), 10/20 (50%), 21%, not calculated (Carcinogen: N-METHYL-N'-NITRO-N-NITROSOGUANIDINE, 70-25-7, Dose [Inhibitor]: 0, 0.5 MG/KG AS A SUSPENSION IN OLIVE OIL 1/2 D BEGINNING POST CARCINOGEN DOSE AND CONTINUING FOR DURATION OF STUDY (STU, Route [Inhibitor]: SUBCUTANEOUS, Species: RAT, Strain/Sex: WISTAR/MALE, Target Tissue: Type of Lesion: STOMACH: ADENOCARCINOMA, Dose [Carcinogen]: 50 UG/ML IN DRINKING WATER FOR 25 WK). Moreover, the outcome was 34%, 0%, 100%, not calculated (low dose carcinogen); 38%, 18%, 53%, not calculat (Carcinogen: DIMETHYLBENZ[A]ANTHRACENE, 57-97-6, MAINTAINED ON 0.5% FA, Route [Inhibitor]: SUBCUTANEOUS, Species: RAT, Strain/Sex: SPRAGUE-DAWLEY/FEMALE) and 56%, 0%, 100%, not calculated (low dose carcinogen); 58%, 19%, 67%, not calculat (Carcinogen: DIMETHYLBENZ[A]ANTHRACENE, 57-97-6, MAINTAINED ON 20% FAT, Route [Inhibitor]: SUBCUTANEOUS, Species: RAT, Strain/Sex: SPRAGUE-DAWLEY/FEMALE).
